Assay results published in patent publication EP0115929A1, “Novel organic platinum complex and process for the preparation thereof” (priority 1983, dated 1984).

Columns and labels:
Leukemia L-1210 = experiment: Effect on life span of mice implanted with Leukemia L-1210 (Method B); assay type: in vivo; settings: for ILS30: denominator in brackets of the therapeutic index cell; for ILS30 / OD: dose column in mg/kg/day; for 60-day survivors: survivors/mice in group; for OD: numerator in brackets of the therapeutic index cell; for increase in the life span of mice: dose of 50 mg/kg/day
Protocol: […] test compound was begun 24 hours after the inoculation of the leukemic cells and performed once a day for 5 days. The survival days of the treated mice were observed.

[1] = test system: Ehrlich ascites carcinoma; experiment: Preventive effect against the growth of Ehrlich ascites carcinoma (Method A); assay type: in vivo, mice; settings: for MTD: footnote *3 in image, dose column in mg/kg/day; for MED: footnote *4 in image, b22: minimum effective dose per day which causes 100 % inhibition, in mg/kg/day; for M.E.D.: minimum effective dose per day which causes 100 % inhibition of Ehrlich ascites carcinoma
Excerpt: It may be useful to prolong the survival time of warm-blood .animals, including human,.afflicted with tumors and/or minimize the growth of tumors in said animals. […] The compound of the present invention is also useful for the treatment of various other tumors such as prostate tumor, orchis tumor, ovary tumor, malignant lymphoma, leukemia, breast cancer and the like.

[2] = dose 1.56 mg/kg/day, (C - T)/C x 100
[3] = dose 3.12 mg/kg/day, (C - T)/C x 100
[4] = dose 6.25 mg/kg/day, (C - T)/C x 100
[5] = dose 25 mg/kg/day, (C - T)/C x 100
[6] = dose 100 mg/kg/day, (C - T)/C x 100
[7] = dose 200 mg/kg/day, cell prints toxicity instead of inhibition (footnote *6 in image)

cis-Dioxamato(2-aminomethylpyridine) platinum (II) [Compound 3]
ILS30 (Leukemia L-1210): 1.65 | ILS (%) (Leukemia L-1210; dose 1.56 mg/kg/day): 28.6% | 60-day survivors (Leukemia L-1210; dose 1.56 mg/kg/day): 0/4 | ILS (%) (Leukemia L-1210; dose 3.12 mg/kg/day): 47.1% | 60-day survivors (Leukemia L-1210; dose 3.12 mg/kg/day): 0/4 | ILS (%) (Leukemia L-1210; dose 6.25 mg/kg/day): 85.7% | 60-day survivors (Leukemia L-1210; dose 6.25 mg/kg/day): 0/4 | ILS (%) (Leukemia L-1210; dose 12.5 mg/kg/day): 90.0% | 60-day survivors (Leukemia L-1210; dose 12.5 mg/kg/day): 0/4 | ILS (%) (Leukemia L-1210; dose 25 mg/kg/day): 100.0% | 60-day survivors (Leukemia L-1210; dose 25 mg/kg/day): 0/4 | ILS (%) (Leukemia L-1210; dose 50 mg/kg/day): >607.1% | 60-day survivors (Leukemia L-1210; dose 50 mg/kg/day): 3/4 | ILS (%) (Leukemia L-1210; dose 100 mg/kg/day): >757.1% | 60-day survivors (Leukemia L-1210; dose 100 mg/kg/day): 4/4 | OD (Leukemia L-1210): 100

cis-Malonato(2-aminomethylpyridine) platinum (II) [Compound 2]
Inhibition rate (%) [1, 2]: 12.9% | Inhibition rate (%) [1, 3]: 100% | Inhibition rate (%) [1, 4]: 100% | Inhibition rate (%) [1, 5]: 100% | Inhibition rate (%) [1, 6]: 100% | Inhibition rate (%) [1, 7]: Toxic(5/5)^*6 | MTD [1]: 100 | MED [1]: 3.12 | M.E.D. [1]: 3.12 mg/kg/day | ILS30 (Leukemia L-1210): 1.8 | ILS (%) (Leukemia L-1210; dose 1.56 mg/kg/day): 25.7% | 60-day survivors (Leukemia L-1210; dose 1.56 mg/kg/day): 0/4 | ILS (%) (Leukemia L-1210; dose 3.12 mg/kg/day): 47.1% | 60-day survivors (Leukemia L-1210; dose 3.12 mg/kg/day): 0/4 | ILS (%) (Leukemia L-1210; dose 6.25 mg/kg/day): 61.4% | 60-day survivors (Leukemia L-1210; dose 6.25 mg/kg/day): 0/4 | ILS (%) (Leukemia L-1210; dose 12.5 mg/kg/day): 92.9% | 60-day survivors (Leukemia L-1210; dose 12.5 mg/kg/day): 0/4 | ILS (%) (Leukemia L-1210; dose 25 mg/kg/day): 185.7% | 60-day survivors (Leukemia L-1210; dose 25 mg/kg/day): 0/4 | ILS (%) (Leukemia L-1210; dose 50 mg/kg/day): >757.1% | 60-day survivors (Leukemia L-1210; dose 50 mg/kg/day): 4/4 | ILS (%) (Leukemia L-1210; dose 100 mg/kg/day): >757.1% | 60-day survivors (Leukemia L-1210; dose 100 mg/kg/day): 4/4 | increase in the life span of mice (Leukemia L-1210): more than 745% | OD (Leukemia L-1210): 100

cis-Oxalato(2-aminomethylpyridine) platinum (II) [Compound 1]
Inhibition rate (%) [1, 2]: 21.9% | Inhibition rate (%) [1, 3]: 100% | Inhibition rate (%) [1, 4]: 100% | Inhibition rate (%) [1, 5]: 100% | Inhibition rate (%) [1, 6]: 100% | Inhibition rate (%) [1, 7]: Toxic(5/5)^*6 | MTD [1]: 100 | MED [1]: 3.12 | M.E.D. [1]: 3.12 mg/kg/day | ILS30 (Leukemia L-1210): 1.3 | ILS (%) (Leukemia L-1210; dose 0.78 mg/kg/day): 19.7% | 60-day survivors (Leukemia L-1210; dose 0.78 mg/kg/day): 0/4 | ILS (%) (Leukemia L-1210; dose 1.56 mg/kg/day): 33.8% | 60-day survivors (Leukemia L-1210; dose 1.56 mg/kg/day): 0/4 | ILS (%) (Leukemia L-1210; dose 3.12 mg/kg/day): 52.1% | 60-day survivors (Leukemia L-1210; dose 3.12 mg/kg/day): 0/4 | ILS (%) (Leukemia L-1210; dose 6.25 mg/kg/day): 80.3% | 60-day survivors (Leukemia L-1210; dose 6.25 mg/kg/day): 0/4 | ILS (%) (Leukemia L-1210; dose 12.5 mg/kg/day): >269.0% | 60-day survivors (Leukemia L-1210; dose 12.5 mg/kg/day): 1/4 | ILS (%) (Leukemia L-1210; dose 25 mg/kg/day): >463.4% | 60-day survivors (Leukemia L-1210; dose 25 mg/kg/day): 2/4 | ILS (%) (Leukemia L-1210; dose 50 mg/kg/day): >745.1% | 60-day survivors (Leukemia L-1210; dose 50 mg/kg/day): 4/4 | ILS (%) (Leukemia L-1210; dose 100 mg/kg/day): >745.1% | 60-day survivors (Leukemia L-1210; dose 100 mg/kg/day): 4/4 | increase in the life span of mice (Leukemia L-1210): more than 745% | OD (Leukemia L-1210): 100
